For 12 compounds, EC50 results are on record in US20200016136A1 (VIIV HEALTHCARE UK (NO. 5) LIMITED, priority 2017, published 2020).

The structures appear in SMILES notation.

The subject of this assay is NL-RLuc virus (recombinant NL4-3 HIV with Renilla Luciferase gene). The experiment in a line: Inhibition of HIV replication (NL-RLuc virus in MT-2 cells, luciferase readout). The conditions noted are these: MT2, 120 h. In kind it is cell-based, Human immunodeficiency virus (HIV). Summed up: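 MT-2 cells infected with NL4-3-derived virus carrying Renilla luciferase in place of part of nef, grown 5 days with serial compound dilutions in RPMI 1640/10% FBS. Virus growth read as luciferase expression. EC50 from median effect equation, at least 2 experiments.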
One may read the EC50 as the concentration at which the effect is half-maximal. As to `Cc1cccc(Cl)c1CN1CCc2cc(-c3c(NC4CCN(C)CC4)nc(C)c([C@H](OC(C)(C)C)C(=O)O)c3N3CCC(C)(C)CC3)ccc2C1` [Example 8, (S)-2-(tert-Butoxy)-2-(5-(2-(2-chloro-6-methylbenzyl)-1,2,3,4-tetrahydroisoquinolin-6-yl)-4-(4,4-dimethylpiperidin-1-yl)-2-methyl-6-((1-methylpiperidin-4-yl)amino)pyridin-3-yl)acetic Acid], the EC50 turned out to be 2 nM.

For the compound `Cc1nc(-c2cnn(C)c2C)c(-c2ccc3c(c2)CCN(c2ncnc4c2oc2ccccc24)C3)c(N2CCC(C)(C)CC2)c1[C@H](OC(C)(C)C)C(=O)O` [Example 13, (S)-2-(5-(2-(Benzofuro[3,2-d]pyrimidin-4-yl)-1,2,3,4-tetrahydroisoquinolin-6-yl)-6-(1,5-dimethyl-1H-pyrazol-4-yl)-4-(4,4-dimethylpiperidin-1-yl)-2-methylpyridin-3-yl)-2-(tert-butoxy)acetic Acid], the EC50 came out at 2 nM. On to `Cc1nc(C)c([C@H](OC(C)(C)C)C(=O)O)c(N2CCC(C)(C)CC2)c1-c1ccc2c(c1)CCN(c1nc(Cl)nc(N3CCOCC3)n1)C2` [Example 58, (S)-2-(tert-Butoxy)-2-(5-(2-(4-chloro-6-morpholino-1,3,5-triazin-2-yl)-1,2,3,4-tetrahydroisoquinolin-6-yl)-4-(4,4-dimethylpiperidin-1-yl)-2,6-dimethylpyridin-3-yl)acetic Acid], for which the EC50 amounted to 8 nM.

Take `Cc1nc(C)c([C@H](OC(C)(C)C)C(=O)O)c(N2CCC(C)(C)CC2)c1-c1ccc2c(c1)CCN(c1nccc(N3C[C@@H](C)O[C@@H](C)C3)n1)C2` [Example 28, (2S)-2-(tert-Butoxy)-2-[5-(2-{4-[(2R,6S)-2,6-dimethylmorpholin-4-yl]pyrimidin-2-yl}-1,2,3,4-tetrahydroisoquinolin-6-yl)-4-(4,4-dimethylpiperidin-1-yl)-2,6-dimethylpyridin-3-yl]acetic Acid]: the EC50 turned out to be 2 nM.

Regarding `CN(Cc1nc(Cl)c([C@H](OC(C)(C)C)C(=O)O)c(N2CCC(C)(C)CC2)c1-c1ccc2c(c1)CCN(c1ncnc3c1oc1ccccc13)C2)CC1CCOCC1` [Example 112, (S)-2-(5-(2-(Benzofuro[3,2-d]pyrimidin-4-yl)-1,2,3,4-tetrahydroisoquinolin-6-yl)-2-chloro-4-(4,4-dimethylpiperidin-1-yl)-6-((methyl((tetrahydro-2H-pyran-4-yl)methyl)amino)methyl)pyridin-3-yl)-2-(tert-butoxy)acetic Acid], the EC50 came to 0.3 nM. In the case of `Cc1nc(C)c([C@H](OC(C)(C)C)C(=O)O)c(N2CCC(C)(C)CC2)c1-c1ccc2c(c1)CCN(c1cc(N3CCOCC3)c(F)cn1)C2` [Example 91, (S)-2-(tert-Butoxy)-2-(4-(4,4-dimethylpiperidin-1-yl)-5-(2-(5-fluoro-4-morpholinopyridin-2-yl)-1,2,3,4-tetrahydroisoquinolin-6-yl)-2,6-dimethylpyridin-3-yl)acetic Acid] it was 9 nM. Take `CCC(C)(C)O[C@H](C(=O)O)c1c(C)nc(C)c(-c2ccc3c(c2)CCN(Cc2ccccc2C)C3)c1N1CCC(C)(C)CC1` [Example 90, (S)-2-(4-(4,4-Dimethylpiperidin-1-yl)-2,6-dimethyl-5-(2-(2-methylbenzyl)-1,2,3,4-tetrahydroisoquinolin-6-yl)pyridin-3-yl)-2-(tert-pentyloxy)acetic Acid]: the EC50 is 4 nM.

`Cc1nc(C)c([C@H](OC(C)(C)C)C(=O)O)c(N2CCC(C)(C)CC2)c1-c1ccc2c(c1)CCN(c1nccc(N3CCC(CCO)CC3)n1)C2` [Example 81, (S)-2-(tert-Butoxy)-2-(4-(4,4-dimethylpiperidin-1-yl)-5-(2-(4-(4-(2-hydroxyethyl)piperidin-1-yl)pyrimidin-2-yl)-1,2,3,4-tetrahydroisoquinolin-6-yl)-2,6-dimethylpyridin-3-yl)acetic Acid]: the EC50 was found to be 4 nM. Consider `Cc1nc(CO)c(-c2ccc3c(c2)CCN(c2nccc(-c4cnccn4)n2)C3)c(N2CCC(C)(C)CC2)c1[C@H](OC(C)(C)C)C(=O)O` [Example 165, (S)-2-(tert-Butoxy)-2-(4-(4,4-dimethylpiperidin-1-yl)-6-(hydroxymethyl)-2-methyl-5-(2-(4-(pyrazin-2-yl)pyrimidin-2-yl)-1,2,3,4-tetrahydroisoquinolin-6-yl)pyridin-3-yl)acetic Acid], for which the EC50 amounted to 2 nM. Turning to `CC1(C)CCN(c2c(-c3ccc4c(c3)CCN(c3ncnc5c3oc3ncccc35)C4)cnc(Cl)c2[C@H](OC(C)(C)C)C(=O)O)CC1` [Example 92, (S)-2-(tert-Butoxy)-2-(2-chloro-4-(4,4-dimethylpiperidin-1-yl)-5-(2-(pyrido[3′,2′:4,5]furo[3,2-d]pyrimidin-4-yl)-1,2,3,4-tetrahydroisoquinolin-6-yl)pyridin-3-yl)acetic Acid], the EC50 was 0.6 nM. For `Cc1nc(C)c([C@H](OC(C)(C)C)C(=O)O)c(N2CCC(C)(C)CC2)c1-c1ccc2c(c1)CCN(c1ccnc(N3C4CCCC3COC4)n1)C2` [Example 36, (2S)-2-(tert-Butoxy)-2-[4-(4,4-dimethylpiperidin-1-yl)-2,6-dimethyl-5-[2-(2-{3-oxa-9-azabicyclo[3.3.1]nonan-9-yl}pyrimidin-4-yl)-1,2,3,4-tetrahydroisoquinolin-6-yl]pyridin-3-yl]acetic Acid], the EC50 is 3 nM. On to `CC1(C)CCN(c2c(-c3ccc4c(c3)CCN(c3ncnc5c3oc3ccccc35)C4)c(CNCCS(C)(=O)=O)nc(Cl)c2[C@H](OC(C)(C)C)C(=O)O)CC1` [Example 110, (S)-2-(5-(2-(Benzofuro[3,2-d]pyrimidin-4-yl)-1,2,3,4-tetrahydroisoquinolin-6-yl)-2-chloro-4-(4,4-dimethylpiperidin-1-yl)-6-(((2-(methylsulfonyl)ethyl)amino)methyl)pyridin-3-yl)-2-(tert-butoxy)acetic Acid], for which the EC50 was found to be 110 nM.
